Data set [1] deals with blood glucose level in diabetes rats. The data set is described as follows: Diabetes rat model induced by a high-fat diet and STZ. It counts as in vivo. On the procedure:
Experimental method: A diabetes rat model was constructed by a high-fat diet+single intraperitoneal injection of STZ (40 mg/kg). A FBG level of higher than or equal to 16.7 mmol/L after two weeks of molding was a criterion for successful molding. Modeled rats were divided into various groups according to the blood glucose level. Rats in a model group were administered with NS, and rats in SMI0 low-dose and high-dose intervention groups were administered with the compound SMI0 at 30 mg/kg and 150 mg/kg every day, respectively. The FBG level in rats was determined and recorded regularly every week until the sixth week after administration. 10 rats were provided in each group.

Data set [2] deals with T1, CYP2E1 (Rattus norvegicus, UniProt P05182).
T1 construct: from tissue; host or cells: whole animal (SD rats); endogenous enzyme in vivo
Kind of data set: In vivo inhibition of metabolism of DEN by CYP2E1 in rats (toxicokinetics of DEN). On the set-up: species or system SD rats. How it is done:
Experimental method: An inhibitory effect of the compound SMI0 on CYP2E1 in rats was investigated by a self-controlled crossover experiment design. In a first round of experiments, DEN alone was intraperitoneally injected at 50 mg/kg (30 SD rats in total) in the first week; after a one-week interval, a second round of experiments were conducted as follows: each rat was first intragastrically administered with the compound SMI0 at a low, medium, or high dose (6 mg/kg, 30 mg/kg, or 150 mg/kg), and 5 min later, each rat was intraperitoneally injected with DEN at 50 mg/kg (10 rats were set for each of low, medium, and high doses); blood was collected at 2 min, 7 min, 15 min, and 30 min and 1 h, 2 h, 4 h, 6 h, 9 h, 12 h, 24 h, 36 h, 48 h, and 60 h; a DEN concentration in plasma was determined at different blood collection time points, and a toxicokinetic parameter of DEN was calculated; and plasma DEN was detected by high performance liquid chromatography (HPLC) as follows: 100 μL of plasma was added to 10 μL of perchloric acid, a resulting mixture was vortexed for 3 min and then centrifuged at 12,000 rpm for 10 min, and 10 μL of a resulting supernatant was collected and injected into an instrument, where the PLC was conducted with methanol:water=50:50 as a mobile phase and a detection wavelength of 240 nm.

In data set [3] the test system is liver cancer cell line H22 in situ transplanted tumor. Kind of data set: Mouse liver cancer model, in situ implantation of H22 cells into liver. The class given is in vivo, BALB/c mouse. The following applies: for liver H22 tumor incidence: 24 days, model group 100%. How it is done: Experimental method: A male BALB/c mouse liver transplanted tumor model was constructed through in situ implantation of a liver cancer cell line H22 into the liver, with a cell concentration of 1.5*10^5. An SMI0 intervention group was divided into a low-dose group, a medium-dose group, and a high-dose group, which were intragastrically administered with the compound SMI0 respectively at 3.3 mg/kg, 10 mg/kg, and 30 mg/kg every day from two days before modeling to the end of the 24-day modeling (model group, n=19 mice; SMI0 compound low-dose group, n=19 mice; SMI0 compound medium-dose group, n=18 mice; and SMI0 compound high-dose group, n=29 mice). At the end of the experiment, blood was collected from the orbit, a body weight was measured, and then the mice each were sacrificed. The weight and appearance of a liver (color and texture of the liver) were recorded. Some liver specimens were subjected to HE staining, and then the liver lesion and tumorigenesis of mice in each group were observed.
Experimental method: The levels of oxidative stress indexes MDA and T-AOC in the mouse paracancerous liver tissue were determined by a kit method; the expression of the chemokine CXCL-12 in the mouse paracancerous liver tissue was detected by RT-PCR; the expression of proinflammatory cytokines (TNF-α, IL-6, and IL-1β) and inflammation-associated signaling pathway proteins (ARRB1, Src, ITGAV, p-STAT3/STAT3, p-ERK/ERK, and p-P38MAPK/P38MAPK) in the mouse paracancerous liver tissue was detected by a WB method; and the expression of apoptosis-associated proteins and signaling pathways casPase3, cleaved casPase3, p-ERK/ERK, and p-p38MAPK/p38MAPK in the tumor tissue was detected by a WB method.

Data set [4] concerns GL261 cells / M2 microglial cells. Kind of data set: GL261 cells co-cultivated with M2 microglial cells. The following applies: SMI0 50 μmol/L vs M2 microglial cell co-cultivation group. The class given is cell-based, mouse. How it is done: Experimental method: 10 1-2 d newborn C57BL/6 WT mice and 6 CYP2E1^−/− mice were taken, primary microglial cells and astrocytes were collected and inoculated into 6-well plates, and 24 h later, culture supernatants were taken and co-cultivated with glioma cells. Experimental groups: control group; M2 model group; high-concentration, medium-concentration, and low-concentration SMI0 (50 μmol/L, 12.5 μmol/L, and 3.1 μmol/L) groups; and CYP2E1 gene-knockout group. 24 h later, supernatants were discarded; and […] and IL-13 each were added at 20 ng/mL to induce the transformation of microglial cells into the M2 type in the M2 model group and the high-concentration, medium-concentration, and low-concentration SMI0 groups, and different concentrations of SMI0 (50 μmol/L, 12.5 μmol/L, and 3.1 μmol/L) were also added in the intervention groups. The proliferation of glioma cells was determined by a CCK8 method, and an apoptosis proportion was determined by an Annexin V-FITC-PI apoptosis staining kit.

The mark [5] stands for this setting: WB, SMI0 30 mg/kg vs model group.

We go through one compound from US20230277508A1, “USE OF COMPOUND AS CYP2E1 INHIBITOR” (SHANGHAI LING XI BIOTECHNOLOGY DEVELOPMENT CO., LTD., priority 2020, published 2023).

Molecules are shown by their SMILES.

T1 sequence (P05182 whole entry): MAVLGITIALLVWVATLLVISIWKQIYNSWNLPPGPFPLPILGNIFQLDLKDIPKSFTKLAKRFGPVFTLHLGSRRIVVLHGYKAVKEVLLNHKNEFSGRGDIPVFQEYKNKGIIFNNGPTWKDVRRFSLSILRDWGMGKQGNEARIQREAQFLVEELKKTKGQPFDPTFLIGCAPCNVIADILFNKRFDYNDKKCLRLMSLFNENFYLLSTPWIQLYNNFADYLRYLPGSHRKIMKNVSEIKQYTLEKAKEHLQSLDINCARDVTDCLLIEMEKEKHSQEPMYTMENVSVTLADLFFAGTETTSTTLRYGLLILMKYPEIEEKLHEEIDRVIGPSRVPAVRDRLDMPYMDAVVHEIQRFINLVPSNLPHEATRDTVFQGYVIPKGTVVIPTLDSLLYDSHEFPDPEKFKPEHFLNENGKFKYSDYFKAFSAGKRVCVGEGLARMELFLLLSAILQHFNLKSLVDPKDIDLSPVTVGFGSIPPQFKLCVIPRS

For the compound `CC(=O)c1scnc1C` [SMI0], in data set [1] (SMI0 low-dose (30 mg/kg) and high-dose (150 mg/kg) daily, weeks 5 and 6, vs model group, P<0.05), the FBG levels result was “significantly reduced”. Besides, the glucose tolerance result in data set [1] (glucose tolerance test, SMI0 30 and 150 mg/kg daily) was “significantly improved”. Moreover, the entries for the “inhibition rate (CL of DEN)” value in data set [2] (SMI0 high dose 150 mg/kg ig), in data set [2] (SMI0 low dose 6 mg/kg ig) and in data set [2] (SMI0 medium dose 30 mg/kg ig) were 86.77%, 62.43% and 80.42%, respectively. In addition, the “liver H22 tumor incidence” value amounted to 68.4% in data set [3] (SMI0 high-dose 30 mg/kg ig daily), 78.9% in data set [3] (SMI0 low-dose 3.3 mg/kg ig daily) and 72.2% in data set [3] (SMI0 medium-dose 10 mg/kg ig daily). Moreover, the “total oxidation resistance index T-AOC in paratumoral liver tissue” value in data set [3] (SMI0 intervention group vs model group, P<0.01) is reported as “significantly increased”. For the same compound, the “expression of other proteins (MDA, CXCL-12, TNF-α, IL-6, IL-1β, ARRB1, Src, ITGAV, p-STAT3/STAT3, p-ERK/ERK, p-p38MAPK/p38MAPK) in paratumoral liver tissue” value in data set [3] (SMI0 intervention group vs model group, P<0.05 or P<0.01) is on record as “significantly reduced”. Besides, the “expression of p-ERK/ERK in the tumor tissue” value in data set [3] (setting [5]) is on record as “significantly down-regulated”. Further, the “expression of p-p38MAPK/p38MAPK in the tumor tissue” value in data set [3] (setting [5]) is listed as “significantly down-regulated”. In addition, in data set [3] (WB, SMI0 30 mg/kg vs model group, P<0.01), the “expression of cleaved caspase3/caspase3 in the tumor tissue” value is reported as “significantly up-regulated”. For the same compound, in data set [3] (as high as, SMI0 intervention group (3.3, 10, 30 mg/kg), cumulative liver tumor weight), the “tumor proliferation inhibition rate” value was determined as 71.8%. Moreover, the “apoptosis of GL261 cells” value in data set [4] is listed as “promoted”. In data set [4] (P<0.001), the “proliferation of GL261 cells” value is “significantly inhibited”.
